Here are results for 10 compounds from PubChem BioAssay (NCI).

Some test systems named below: TK-10 renal; SK-MEL-28 melanoma; SNB-19 CNS; SF-539 CNS; UACC-257 melanoma; SF-268 CNS; OVCAR-5 ovarian; HOP-62 NSCLC; NCI-H460 lung; IGROV1 ovarian.
Holding throughout (assay): inhibition of tumour cell growth, NCI panel, 48 h

Several values for one entry are separate records, joined by “and”; a condition that tells them apart may be missing. Identical values can stand only once.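 Grown in 96-well plates, cells were treated for 48 hours with each compound at five concentrations. Insufficient inhibition: endpoint recorded as highest concentration tested. GI50: concentration for 50% inhibition of growth. The concentration for full growth arrest is given as TGI.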 Where only a bound is given, the exact number is not on record here.

Regarding `CCN(CC)CCOC(COc1cc(C)cc(C)c1)COc1cc(C)cc(C)c1`, the GI50 was 3450 nM in the test on TK-10 renal; 1840 nM in the test with SK-MEL-28 melanoma; 2300 nM in the test on SNB-19 CNS; 1620 nM in the test with SF-539 CNS; 4890 nM with UACC-257 melanoma; 4260 nM with SF-268 CNS. Moreover, the GI50 is 1850 nM with OVCAR-5 ovarian and 2720 nM with HOP-62 NSCLC. The TGI with TK-10 renal turned out to be 14500 nM; in the test on SK-MEL-28 melanoma it was 3770 nM; in the test on SNB-19 CNS, 7360 nM; in the test with SF-539 CNS it was 3300 nM; in the test with UACC-257 melanoma, 17200 nM; in the test on SF-268 CNS, 17600 nM. The TGI was 6180 nM with OVCAR-5 ovarian and 18500 nM with HOP-62 NSCLC.
On to `COc1cc(C(=O)c2cnc(-c3c[nH]c4cccc(C)c34)[nH]2)cc(OC)c1OC`, for which the GI50 was 990 nM in the test with SK-MEL-28 melanoma; 6.18 nM with NCI-H460 lung; 8.42 nM and 16.8 nM with IGROV1 ovarian; 5.05 nM in the test on SNB-19 CNS; 2.89 nM with SF-539 CNS; 332 nM in the test with UACC-257 melanoma. Further, the GI50 with SF-268 CNS is 8.62 nM; with OVCAR-5 ovarian, 74.6 nM; in the test with HOP-62 NSCLC it was 8.09 nM. For the same compound, the TGI with SK-MEL-28 melanoma was 97400 nM; in the test on NCI-H460 lung, 35400 nM; in the test on IGROV1 ovarian it was over 100000 nM; in the test with SNB-19 CNS it was over 100000 nM; in the test on SF-539 CNS, 8.74 nM; in the test on SF-268 CNS, over 100000 nM. Further, the values for the TGI with OVCAR-5 ovarian and in the test on HOP-62 NSCLC were over 100000 nM and 55900 nM, respectively.
Take `[Br][Pb]([c]1ccccc1)([c]1ccccc1)[c]1ccccc1`: the GI50 was 175 nM in the test on TK-10 renal; 175 nM in the test on SK-MEL-28 melanoma; 292 nM in the test on NCI-H460 lung; 221 nM in the test with SNB-19 CNS; 252 nM in the test with SF-539 CNS; 193 nM with UACC-257 melanoma. Also, the figures for the GI50 with SF-268 CNS, with OVCAR-5 ovarian and in the test with HOP-62 NSCLC were 171 nM, 289 nM and 218 nM, respectively. Besides, the TGI turned out to be 360 nM in the test with TK-10 renal; 342 nM in the test on SK-MEL-28 melanoma; 895 nM in the test on NCI-H460 lung; 527 nM in the test on SNB-19 CNS; 596 nM with SF-539 CNS; 430 nM in the test on UACC-257 melanoma. For the same compound, the figures for the TGI in the test on SF-268 CNS, in the test with OVCAR-5 ovarian and in the test on HOP-62 NSCLC were 350 nM, 1220 nM and 505 nM, respectively.
Consider `Nc1ncn([C@H]2CC(O)[C@@H](CO)S2)c(=O)n1` (stereo partly drawn), for which the GI50 in the test with TK-10 renal was 36300 nM; in the test on SK-MEL-28 melanoma it was 2050 nM; with NCI-H460 lung it was 685 nM; in the test on IGROV1 ovarian, 10200 nM; in the test on SNB-19 CNS, 16200 nM; with SF-539 CNS, 16700 nM. For the same compound, the GI50 in the test with SF-268 CNS was 16400 nM; with OVCAR-5 ovarian, 23300 nM; in the test with HOP-62 NSCLC, 4630 nM. Moreover, the TGI with TK-10 renal, in the test on SK-MEL-28 melanoma, in the test on NCI-H460 lung, in the test with IGROV1 ovarian, in the test on SNB-19 CNS and with SF-539 CNS was over 100000 nM throughout. The TGI in the test on SF-268 CNS, with OVCAR-5 ovarian and in the test with HOP-62 NSCLC was over 100000 nM in each case.
As for `COC(=O)[C@@]12OC[C@]34[C@H]([C@@H](O)[C@@H]1O)[C@@]1(C)CC(=O)C(O)=C(C)[C@@H]1C[C@H]3OC(=O)[C@H](OC(=O)/C=C(\C)C(C)C)[C@@H]24`, the GI50 is 23.5 nM in the test on TK-10 renal and 4.64 nM with SNB-19 CNS. Further, the TGI with TK-10 renal was 71.9 nM and 33.3 nM; with SK-MEL-28 melanoma, 14.2 nM and < 33.9 nM and 31.7 nM; in the test on NCI-H460 lung it was 5.67 nM and 43.5 nM; in the test with IGROV1 ovarian it was 15.3 nM and 59 nM; in the test on SNB-19 CNS, 21.4 nM and 145 nM; in the test with SF-539 CNS, 6.11 nM and 23.4 nM. Further, the TGI in the test with UACC-257 melanoma is 31.6 nM and 30.5 nM; in the test with HOP-62 NSCLC, 34.2 nM and < 11 nM and 21.6 nM.
Turning to `CC(C)(O)C1COC2=C1C(=O)c1ccccc1C2=O` (stereo not drawn), the TGI in the test with SK-MEL-28 melanoma is 46000 nM; with NCI-H460 lung, over 100000 nM; with IGROV1 ovarian, over 100000 nM; in the test on SNB-19 CNS it was over 100000 nM; with SF-539 CNS it was over 100000 nM; in the test on UACC-257 melanoma, over 100000 nM. Further, the results for the TGI in the test on SF-268 CNS and in the test with OVCAR-5 ovarian were 77100 nM and 54000 nM, respectively.
In the case of `C[N+](C)(C)CC1CCC(C[N+](C)(C)C)C1=NO` (stereo not drawn), the TGI in the test with SK-MEL-28 melanoma, with IGROV1 ovarian, in the test on SNB-19 CNS, with SF-539 CNS, in the test with UACC-257 melanoma and with SF-268 CNS was over 100000 nM each time. In the test on HOP-62 NSCLC, this compound showed a TGI of over 100000 nM.
Consider `COc1cc(C2CC(c3ccccc3)=NN2C=O)ccc1Oc1ccnc2cc(Cl)ccc12` (stereo not drawn), for which the GI50 in the test with SK-MEL-28 melanoma was over 100000 nM; in the test with NCI-H460 lung it was 18500 nM; in the test on IGROV1 ovarian, 35000 nM; with SNB-19 CNS, 26600 nM; with SF-539 CNS it was 10300 nM; with SF-268 CNS, 23200 nM. The figures for the GI50 with OVCAR-5 ovarian and in the test with HOP-62 NSCLC were over 100000 nM and 12400 nM, respectively. The TGI is over 100000 nM with SK-MEL-28 melanoma; over 100000 nM with NCI-H460 lung; over 100000 nM with IGROV1 ovarian; over 100000 nM in the test with SNB-19 CNS; 77900 nM with SF-539 CNS; over 100000 nM in the test with SF-268 CNS. In addition, the figures for the TGI in the test with OVCAR-5 ovarian and in the test on HOP-62 NSCLC were over 100000 nM and 36300 nM, respectively.
Regarding `OC12CCC3(OC4CCCCO4)c4ccccc4C3C1c1ccccc12` (stereo not drawn), the TGI in the test with TK-10 renal, in the test with SK-MEL-28 melanoma, with NCI-H460 lung, in the test on SNB-19 CNS, in the test on UACC-257 melanoma and in the test with SF-268 CNS was over 100000 nM each time. Moreover, in the test with HOP-62 NSCLC, the TGI was over 100000 nM.
Take `O=C1C(Cl)=C(Nc2ccc(S(=O)(=O)c3ccc(NC4=C(Cl)C(=O)c5ccccc5C4=O)cc3)cc2)C(=O)c2ccccc21`: the GI50 in the test with TK-10 renal was 1670 nM; in the test on SK-MEL-28 melanoma, 1800 nM; in the test with NCI-H460 lung, 2360 nM; with SNB-19 CNS, 3110 nM; in the test on SF-539 CNS, 1910 nM; in the test on UACC-257 melanoma, 1920 nM. The values for the GI50 in the test with OVCAR-5 ovarian and with HOP-62 NSCLC were 1920 nM and 2140 nM, respectively. Moreover, the TGI with TK-10 renal is 3040 nM; with SK-MEL-28 melanoma it was 3280 nM; with NCI-H460 lung, 6530 nM; in the test with SNB-19 CNS, 13900 nM; with SF-539 CNS it was 3710 nM; in the test with UACC-257 melanoma it was 3480 nM. The TGI in the test with OVCAR-5 ovarian came out at 3810 nM; in the test with HOP-62 NSCLC, 6520 nM.
